Experimental findings from patent US20240109864A1, “SUBSTITUTED PYRAZOLYL PIPERIDINE CARBOXYLIC ACIDS” (BAYER AKTIENGESELLSCHAFT, priority 2020, published 2024) are described below.

This experiment deals with T1, recombinant guanylate cyclase reporter cell line (Rattus norvegicus, UniProt P20595).
T1 construct: expressed in transfected cells
T1 sequence (P20595 1-619): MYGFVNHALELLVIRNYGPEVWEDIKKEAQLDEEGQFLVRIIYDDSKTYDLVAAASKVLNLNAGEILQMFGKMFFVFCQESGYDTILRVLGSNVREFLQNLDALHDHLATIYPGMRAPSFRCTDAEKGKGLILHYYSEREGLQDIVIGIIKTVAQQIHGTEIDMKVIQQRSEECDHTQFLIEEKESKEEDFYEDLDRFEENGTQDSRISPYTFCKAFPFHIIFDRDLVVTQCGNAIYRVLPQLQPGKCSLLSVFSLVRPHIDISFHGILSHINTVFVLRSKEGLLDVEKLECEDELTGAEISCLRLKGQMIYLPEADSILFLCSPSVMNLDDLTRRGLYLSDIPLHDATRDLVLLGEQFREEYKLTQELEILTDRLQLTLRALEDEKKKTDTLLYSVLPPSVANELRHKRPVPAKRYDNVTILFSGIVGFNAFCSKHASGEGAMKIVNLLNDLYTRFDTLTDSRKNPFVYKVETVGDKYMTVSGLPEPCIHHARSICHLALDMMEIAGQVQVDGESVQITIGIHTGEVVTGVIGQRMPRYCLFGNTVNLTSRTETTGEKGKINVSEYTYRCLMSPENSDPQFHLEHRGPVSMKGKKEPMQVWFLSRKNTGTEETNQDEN
T1 sequence (P19686 1-690 partner): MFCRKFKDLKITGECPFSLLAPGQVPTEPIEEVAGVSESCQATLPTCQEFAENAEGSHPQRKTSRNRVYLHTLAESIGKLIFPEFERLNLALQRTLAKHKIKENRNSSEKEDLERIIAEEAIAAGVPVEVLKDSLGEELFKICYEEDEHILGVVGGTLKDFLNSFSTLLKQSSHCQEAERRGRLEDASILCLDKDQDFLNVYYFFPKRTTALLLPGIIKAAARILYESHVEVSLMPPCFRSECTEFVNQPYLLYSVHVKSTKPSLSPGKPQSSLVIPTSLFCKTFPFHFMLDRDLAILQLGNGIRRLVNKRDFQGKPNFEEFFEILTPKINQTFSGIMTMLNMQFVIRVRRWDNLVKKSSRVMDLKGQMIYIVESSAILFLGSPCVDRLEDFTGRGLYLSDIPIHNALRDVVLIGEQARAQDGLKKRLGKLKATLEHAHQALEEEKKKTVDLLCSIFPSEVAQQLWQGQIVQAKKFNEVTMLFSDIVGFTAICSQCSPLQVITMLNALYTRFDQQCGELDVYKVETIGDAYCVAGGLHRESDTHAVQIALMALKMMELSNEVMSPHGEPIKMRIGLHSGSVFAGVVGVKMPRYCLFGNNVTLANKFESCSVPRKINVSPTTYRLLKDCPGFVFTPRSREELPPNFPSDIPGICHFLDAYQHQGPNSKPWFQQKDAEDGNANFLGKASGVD
The experiment can be described thus: Effect on a recombinant guanylate cyclase reporter cell line. The following applies: in some cases mean values from individual determinations; for MEC: MEC = minimum effective concentration; for EC50: half maximal effective concentration. Format: cell-based. The method, then: The cellular activity of the compounds according to the invention was determined using a recombinant guanylate cyclase reporter cell line, as described in F. Wunder et al., Anal. Biochem. 339, 104-112 (2005).

Structures can show the parent of a compound that is named as a salt.

With `O=C(O)c1cnn(C2CCCN(c3cc(Cl)ccc3-c3ccc(N4CCN(CCOC(F)(F)F)CC4)cc3)C2)c1C(F)(F)F` (single isomer, unassigned) [Example 35, 1-[1-[5-Chloro-2-[4-[4-[2-(trifluoromethoxy)ethyl]piperazin-1-yl]phenyl]phenyl]-3-piperidyl]-5-(trifluoromethyl)pyrazole-4-carboxylic acid hydrochloride], the MEC is given as 3.0 nM and the EC50 (as a rule, the concentration that produces a half-maximal response) worked out at 17.5 nM.
The matching figures for `CC(=O)N1CCN(c2ccc(-c3ccc(Cl)cc3N3CCCC(n4ncc(C(=O)O)c4C(F)(F)F)C3)cc2)CC1` (single isomer, unassigned) [Example 36, 1-[1-[2-[4-(4-Acetylpiperazin-1-yl)phenyl]-5-chloro-phenyl]-3-piperidyl]-5-(trifluoromethyl)pyrazole-4-carboxylic acid]: 10.0 nM and 35.5 nM.
The matching figures for `CCC(=O)N1CCN(c2ccc(-c3ccc(Cl)cc3N3CCCC(n4ncc(C(=O)O)c4C(F)(F)F)C3)cc2)CC1` (single isomer, unassigned) [Example 37, 1-[1-[5-Chloro-2-[4-(4-propanoylpiperazin-1-yl)phenyl]phenyl]-3-piperidyl]-5-(trifluoromethyl)pyrazole-4-carboxylic acid]: 3.0 nM and 15.5 nM.
`CC(C)C(=O)N1CCN(c2ccc(-c3ccc(Cl)cc3N3CCCC(n4ncc(C(=O)O)c4C(F)(F)F)C3)cc2)CC1` (single isomer, unassigned) [Example 38, 1-[1-[5-Chloro-2-[4-[4-(2-methylpropanoyl)piperazin-1-yl]phenyl]phenyl]-3-piperidyl]-5-(trifluoromethyl)pyrazole-4-carboxylic acid]: the MEC is 3.0 nM and the EC50 is 15.5 nM.
With `CC(C)(F)C(=O)N1CCN(c2ccc(-c3ccc(Cl)cc3N3CCCC(n4ncc(C(=O)O)c4C(F)(F)F)C3)cc2)CC1` (single isomer, unassigned) [Example 39, 1-[1-[5-Chloro-2-[4-[4-(2-fluoro-2-methyl-propanoyl)piperazin-1-yl]phenyl]phenyl]-3-piperidyl]-5-(trifluoromethyl)pyrazole-4-carboxylic acid], the MEC is recorded as 10.0 nM and the concentration giving a half-maximal response (EC50) was determined as 59 nM.
With `CCCC(=O)N1CCN(c2ccc(-c3ccc(Cl)cc3N3CCCC(n4ncc(C(=O)O)c4C(F)(F)F)C3)cc2)CC1` (single isomer, unassigned) [Example 40, 1-[1-[2-[4-(4-Butanoylpiperazin-1-yl)phenyl]-5-chloro-phenyl]-3-piperidyl]-5-(trifluoromethyl)pyrazole-4-carboxylic acid], the MEC is given as 3.0 nM and the concentration for a half-maximal effect (EC50) was determined as 19 nM.
`COCCC(=O)N1CCN(c2ccc(-c3ccc(Cl)cc3N3CCCC(n4ncc(C(=O)O)c4C(F)(F)F)C3)cc2)CC1` (single isomer, unassigned) [Example 41, 1-[1-[5-Chloro-2-[4-[4-(3-methoxypropanoyl)piperazin-1-yl]phenyl]phenyl]-3-piperidyl]-5-(trifluoromethyl)pyrazole-4-carboxylic acid]: the MEC is given as 3.0 nM and the EC50 was 44 nM.
As for `O=C(O)c1cnn(C2CCCN(c3cc(Cl)ccc3-c3ccc(N4CCN(C(=O)C5CC5)CC4)cc3)C2)c1C(F)(F)F` (single isomer, unassigned) [Example 42, 1-[1-[5-Chloro-2-[4-[4-(cyclopropanecarbonyl)piperazin-1-yl]phenyl]phenyl]-3-piperidyl]-5-(trifluoromethyl)pyrazole-4-carboxylic acid], the MEC worked out at 1.0 nM and the EC50 is 4.2 nM.
As for `O=C(O)c1cnn(C2CCCN(c3cc(Cl)ccc3-c3ccc(N4CCN(C(=O)C5(F)CC5)CC4)cc3)C2)c1C(F)(F)F` (single isomer, unassigned) [Example 43, 1-[1-[5-Chloro-2-[4-[4-(1-fluorocyclopropanecarbonyl)piperazin-1-yl]phenyl]phenyl]-3-piperidyl]-5-(trifluoromethyl)pyrazole-4-carboxylic acid], the MEC came to 1.0 nM and the EC50 was found to be 15.1 nM.
The corresponding values for `O=C(O)c1cnn(C2CCCN(c3cc(Cl)ccc3-c3ccc(N4CCN(C(=O)C5CC5F)CC4)cc3)C2)c1C(F)(F)F` (single isomer, unassigned) [Example 44, 1-[1-[5-Chloro-2-[4-[4-(2-fluorocyclopropanecarbonyl)piperazin-1-yl]phenyl]phenyl]-3-piperidyl]-5-(trifluoromethyl)pyrazole-4-carboxylic acid] are 10.0 nM and 34.5 nM.
As for `O=C(O)c1cnn(C2CCCN(c3cc(Cl)ccc3-c3ccc(N4CCN(C(=O)[C@H]5C[C@H]5F)CC4)cc3)C2)c1C(F)(F)F` (single isomer, unassigned) [Example 45, hydrochloride], the MEC is 3.0 nM and the EC50 is 14 nM.
On to `O=C(O)c1cnn(C2CCCN(c3cc(Cl)ccc3-c3ccc(N4CCN(C(=O)[C@@H]5C[C@@H]5F)CC4)cc3)C2)c1C(F)(F)F` (single isomer, unassigned) [Example 46], for which the MEC worked out at 3.0 nM and the EC50 came to 14.5 nM.
`O=C(O)c1cnn(C2CCCN(c3cc(Cl)ccc3-c3ccc(N4CCN(C(=O)C5CC5(F)F)CC4)cc3)C2)c1C(F)(F)F` (single isomer, unassigned) [Example 47, 1-[1-[5-Chloro-2-[4-[4-[2,2-difluorocyclopropanecarbonyl]piperazin-1-yl]phenyl]phenyl]-3-piperidyl]-5-(trifluoromethyl)pyrazole-4-carboxylic acid]: the MEC is listed as 3.0 nM and the EC50 was 17 nM.
Regarding `O=C(O)c1cnn(C2CCCN(c3cc(Cl)ccc3-c3ccc(N4CCN(C(=O)[C@H]5CC5(F)F)CC4)cc3)C2)c1C(F)(F)F` (single isomer, unassigned) [Example 48, 1-[1-[5-Chloro-2-[4-[4-[2,2-difluorocyclopropanecarbonyl]piperazin-1-yl]phenyl]phenyl]-3-piperidyl]-5-(trifluoromethyl)pyrazole-4-carboxylic acid], the MEC is given as 3.0 nM and the EC50 came out at 10.6 nM.
As to `O=C(O)c1cnn(C2CCCN(c3cc(Cl)ccc3-c3ccc(N4CCN(C(=O)C5CCC5)CC4)cc3)C2)c1C(F)(F)F` (single isomer, unassigned) [Example 49, 1-[1-[5-Chloro-2-[4-[4-(cyclobutanecarbonyl)piperazin-1-yl]phenyl]phenyl]-3-piperidyl]-5-(trifluoromethyl)pyrazole-4-carboxylic acid hydrochloride], the MEC is 1.0 nM and the EC50 was determined as 3.5 nM.
Take `O=C(O)c1cnn(C2CCCN(c3cc(Cl)ccc3-c3ccc(N4CCN(C(=O)C5CC(F)(F)C5)CC4)cc3)C2)c1C(F)(F)F` (single isomer, unassigned) [Example 50, 1-[1-[5-Chloro-2-[4-[4-(3,3-difluorocyclobutanecarbonyl)piperazin-1-yl]phenyl]phenyl]-3-piperidyl]-5-(trifluoromethyl)pyrazole-4-carboxylic acid]: the MEC is given as 10.0 nM and the EC50 was found to be 47.5 nM.
On to `O=C(O)c1cnn(C2CCCN(c3cc(Cl)ccc3-c3ccc(N4CCN(C(=O)C56CC(F)(C5)C6)CC4)cc3)C2)c1C(F)(F)F` (single isomer, unassigned) [Example 51, 1-[1-[5-Chloro-2-[4-[4-(3-fluorobicyclo[1.1.1]pentane-1-carbonyl)piperazin-1-yl]phenyl]phenyl]-3-piperidyl]-5-(trifluoromethyl)pyrazole-4-carboxylic acid], for which the MEC came to 3.0 nM and the EC50 amounted to 9.4 nM.
Take `CC(C)CC(=O)N1CCN(c2ccc(-c3ccc(Cl)cc3N3CCCC(n4ncc(C(=O)O)c4C(F)(F)F)C3)cc2)CC1` (single isomer, unassigned) [Example 52, 1-[1-[5-Chloro-2-[4-[4-(3-methylbutanoyl)piperazin-1-yl]phenyl]phenyl]-3-piperidyl]-5-(trifluoromethyl)pyrazole-4-carboxylic acid]: the MEC is 10.0 nM and the EC50 is 31 nM.
